Measured values from PubChem BioAssay AID330 (DTP/NCI, 2004).
“And” between values parts separate entries of the source, which are not always exact repeats. Equal values may be shown once. Inconclusive results and toxic doses are left out. Peptide text beside a SMILES is read from it. * marks the point of attachment. Cbz = O=C(OCc1ccccc1)*

Tested on: P388 leukemia ip, CD2F1 mice, survival T/C
Assay: NCI In Vivo Anticancer Drug Screen. Data for tumor model P388 Leukemia (intraperitoneal) in CD2F1 (CDF1) mice
Conditions: endpoint: median survival time, higher = longer survival
In short: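 Mice carrying the transplanted tumor received test compound or vehicle. Survival was recorded in each group, and the value is the treated-group measurement divided by that of the vehicle-treated control group.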

[1] = dose: 50.0 mg/kg/injection, schedule: Q01DX005 (ip), vehicle: saline with Tween-80
[2] = dose: 100.0 mg/kg/injection, schedule: Q01DX005 (ip), vehicle: saline with Tween-80
[3] = dose: 200.0 mg/kg/injection, schedule: Q01DX005 (ip), vehicle: saline with Tween-80
[4] = dose: 50.0 mg/kg/injection, schedule: Q01DX009 (ip), vehicle: Klucel (hydroxypropylcellulose) (HPC)
[5] = dose: 100.0 mg/kg/injection, schedule: Q01DX009 (ip), vehicle: Klucel (hydroxypropylcellulose) (HPC)
[6] = dose: 200.0 mg/kg/injection, schedule: Q01DX009 (ip), vehicle: Klucel (hydroxypropylcellulose) (HPC)
[7] = dose: 50.0 mg/kg/injection, schedule: Q01DX005 (ip), vehicle: Klucel (hydroxypropylcellulose) (HPC)
[8] = dose: 100.0 mg/kg/injection, schedule: Q01DX005 (ip), vehicle: Klucel (hydroxypropylcellulose) (HPC)
[9] = dose: 200.0 mg/kg/injection, schedule: Q01DX005 (ip), vehicle: Klucel (hydroxypropylcellulose) (HPC)
[10] = dose: 50.0 mg/kg/injection, schedule: Q01DX009 (ip), vehicle: saline with Tween-80
[11] = dose: 100.0 mg/kg/injection, schedule: Q01DX009 (ip), vehicle: saline with Tween-80
[12] = dose: 200.0 mg/kg/injection, schedule: Q01DX009 (ip), vehicle: saline with Tween-80
[13] = dose: 400.0 mg/kg/injection, schedule: Q01DX009 (ip), vehicle: saline with Tween-80
[14] = dose: 60.0 mg/kg/injection, schedule: Q01DX005 (ip), vehicle: saline with Tween-80
[15] = dose: 6.25 mg/kg/injection, schedule: Q01DX001 (ip), vehicle: saline
[16] = dose: 12.5 mg/kg/injection, schedule: Q01DX001 (ip), vehicle: saline
[17] = dose: 50.0 mg/kg/injection, schedule: Q01DX009 (ip), vehicle: saline
[18] = dose: 100.0 mg/kg/injection, schedule: Q01DX009 (ip), vehicle: saline
[19] = dose: 120.0 mg/kg/injection, schedule: Q01DX005 (ip), vehicle: saline with Tween-80
[20] = dose: 240.0 mg/kg/injection, schedule: Q01DX005 (ip), vehicle: saline with Tween-80

CC(C)(C)OOC(=O)c1ccccc1O
T/C (dose: 100.0 mg/kg/injection, schedule: Q04DX003 (ip), vehicle: saline sonified): 100 % of control | T/C (dose: 200.0 mg/kg/injection, schedule: Q04DX003 (ip), vehicle: saline sonified): 100 % of control

C#CC(C)(C)Oc1ccc2c(=O)c(-c3ccc(OC)cc3)coc2c1
T/C [1]: 94 % of control | T/C [2]: 89 % of control

C[C@]12CC[C@@H]3c4ccc(OCCCO)c([N+](=O)[O-])c4CC[C@H]3[C@@H]1CCC2=O
T/C (dose: 25.0 mg/kg/injection, schedule: Q01DX005 (ip), vehicle: saline with Tween-80): 100 % of control | T/C [1]: 106 % of control | T/C [2]: 91 % of control | T/C [3]: 88 % of control

O=C(O)CC1Sc2nc3c(n2C1(O)c1ccccc1)CCCC3 (configuration not stated)
T/C [4]: 109 % of control | T/C [5]: 100 % of control | T/C [6]: 98 % of control

COc1ccc(CSC(=S)Nc2ccccc2C(F)(F)F)cc1
T/C (dose: 50.0 mg/kg/injection, schedule: Q01DX009 (ip), vehicle: suspension in saline): 93 % of control | T/C (dose: 100.0 mg/kg/injection, schedule: Q01DX009 (ip), vehicle: suspension in saline): 91 % of control | T/C (dose: 200.0 mg/kg/injection, schedule: Q01DX009 (ip), vehicle: suspension in saline): 92 % of control

CNC(=O)c1ccccc1CC1(O)c2ccccc2Oc2ccccc21
T/C [7]: 100 % of control | T/C [8]: 99 % of control | T/C [9]: 96 % of control

CCCCCCCCCCCC(=O)NCCOCCOCCOCCOCCOCCOCCOCCOCCO (tested in a mixture with another compound)
T/C [1]: 98 % of control | T/C [2]: 102 % of control | T/C [3]: 96 % of control

COC(=O)C12OCC34C(CC5C(C)=C(O)C(=O)CC5(C)C3C(O)C1O)OC(=O)C(OC(=O)N(C)[Si](C)(C)C(C)(C)C)C24 (configuration not stated)
T/C (dose: 125.0 micrograms/kg/injection, schedule: Q01DX005 (ip), vehicle: Klucel (hydroxypropylcellulose) (HPC)): 101 % of control | T/C (dose: 250.0 micrograms/kg/injection, schedule: Q01DX005 (ip), vehicle: Klucel (hydroxypropylcellulose) (HPC)): 95 % of control | T/C (dose: 500.0 micrograms/kg/injection, schedule: Q01DX005 (ip), vehicle: Klucel (hydroxypropylcellulose) (HPC)): 96 % of control | T/C (dose: 1000.0 micrograms/kg/injection, schedule: Q01DX005 (ip), vehicle: Klucel (hydroxypropylcellulose) (HPC)): 95 % of control

CC(=Nc1ccccc1)C1=C(O)C(CC(C)C)NC1=O (configuration not stated)
T/C [10]: 103 % of control | T/C [11]: 99 % of control | T/C [12]: 100 % of control | T/C [13]: 110 % of control

CC(=O)C(C)(NCc1ccccc1)c1ccccc1 (configuration not stated)
T/C [4]: 101 % of control | T/C [5]: 108 % of control | T/C [6]: 108 % of control | T/C (dose: 400.0 mg/kg/injection, schedule: Q01DX009 (ip), vehicle: Klucel (hydroxypropylcellulose) (HPC)): 90 % of control

O=S1(=O)CC(c2ccccc2)=NN=C(c2ccccc2)C1
T/C [4]: 93 % of control | T/C [5]: 93 % of control | T/C [6]: 88 % of control

CC(=O)O[C@H]1CC[C@@]2(C)C(CC[C@]3(C)C2CC=C2[C@@H]4CC(C)(C)CC[C@]4(C(=O)NCCN(C)C)CCC23C)C1(C)C (some centres not stated)
T/C (dose: 7.5 mg/kg/injection, schedule: Q01DX005 (ip), vehicle: saline with Tween-80): 99 % of control | T/C (dose: 15.0 mg/kg/injection, schedule: Q01DX005 (ip), vehicle: saline with Tween-80): 100 % of control | T/C (dose: 30.0 mg/kg/injection, schedule: Q01DX005 (ip), vehicle: saline with Tween-80): 99 % of control | T/C [14]: 103 % of control

CC(C)(C#N)NCCNC(C)(C)C#N
T/C [15]: 108 % of control | T/C [16]: 99 % of control

CSCCC(NC(=O)C1CCCN1C(=O)OCc1ccccc1)C(=O)O (stereo not drawn) (Cbz-Pro-Met-OH; configuration not given here)
T/C [1]: 104 % of control | T/C [2]: 106 % of control | T/C [3]: 105 % of control

O=C1Nc2ccccc2/C1=N/N=C/c1ccco1
T/C [4]: 96 % of control | T/C [5]: 87 % of control | T/C [6]: 88 % of control

[NH-]CC[NH-].[NH-]CC[NH-].[NH-]CC[NH-].[Ni]
T/C (dose: 6.25 mg/kg/injection, schedule: Q01DX009 (ip), vehicle: saline): 90 % of control | T/C (dose: 12.5 mg/kg/injection, schedule: Q01DX009 (ip), vehicle: saline): 90 % of control

CCCCCCCCOC(=O)NCCCCC(N)C(=O)O (configuration not stated)
T/C [17]: 87 % of control | T/C [18]: 101 % of control | T/C (dose: 200.0 mg/kg/injection, schedule: Q01DX009 (ip), vehicle: saline): 103 % of control

COC(=O)Nc1nc2ccc(C(=O)c3ccc(F)cc3)cc2[nH]1
T/C (dose: 12.5 mg/kg/injection, schedule: Q01DX009 (ip), vehicle: saline with Tween-80): 120 % of control | T/C [10]: 180 % of control | T/C [11]: 217 % of control and 236 % of control

CC(O)C1OC(O)C2OC(C)(C)OC12 (configuration not stated)
T/C (dose: 60.0 mg/kg/injection, schedule: Q01DX005 (ip), vehicle: saline): 98 % of control | T/C (dose: 120.0 mg/kg/injection, schedule: Q01DX005 (ip), vehicle: saline): 95 % of control | T/C (dose: 240.0 mg/kg/injection, schedule: Q01DX005 (ip), vehicle: saline): 98 % of control

O=C(C1CO1)C(Cl)(Cl)Cl (configuration not stated)
T/C (dose: 3.12 mg/kg/injection, schedule: Q01DX001 (ip), vehicle: saline): 107 % of control | T/C [15]: 107 % of control | T/C [16]: 116 % of control | T/C (dose: 25.0 mg/kg/injection, schedule: Q01DX001 (ip), vehicle: saline): 120 % of control and 122 % of control | T/C (dose: 50.0 mg/kg/injection, schedule: Q01DX001 (ip), vehicle: saline): 113 % of control | T/C (dose: 100.0 mg/kg/injection, schedule: Q01DX001 (ip), vehicle: saline): 111 % of control

Nc1nnc2n(N)cnn12
T/C (dose: 100.0 mg/kg/injection, schedule: Q04DX002 (ip), vehicle: water): 114 % of control | T/C (dose: 200.0 mg/kg/injection, schedule: Q04DX002 (ip), vehicle: water): 109 % of control | T/C (dose: 400.0 mg/kg/injection, schedule: Q04DX002 (ip), vehicle: water): 106 % of control

CC1(C)N=C(N)N=C(N)N1c1ccc(OCCCNC(=O)Nc2cccc(S(=O)(=O)F)c2)c(Cl)c1
T/C (dose: 25.0 mg/kg/injection, schedule: Q01DX009 (ip), vehicle: saline): 179 % of control | T/C [17]: 190 % of control | T/C [18]: 209 % of control

Nc1nc2nc(-c3ccccc3)nc(N)c2nc1C(=O)N/N=C/c1ccccc1
T/C [11]: 96 % of control | T/C [12]: 95 % of control | T/C [13]: 100 % of control

O=C(c1ccccc1)c1cc(Cl)ccc1NCC(O)COc1cccc2ccccc12 (configuration not stated)
T/C [14]: 100 % of control | T/C [19]: 91 % of control | T/C [20]: 88 % of control

CN(C(=O)Nc1cccc2c(NC(=O)N(C)C3CCCCC3)cccc12)C1CCCCC1
T/C [14]: 93 % of control | T/C [19]: 87 % of control | T/C [20]: 90 % of control

O=C1c2ccccc2C2(O)C3C=CCCN3CN12 (configuration not stated)
T/C [7]: 101 % of control | T/C [8]: 100 % of control | T/C [9]: 100 % of control

COc1ccc(Cl)cc1Cn1ccnc1
T/C [14]: 97 % of control | T/C [19]: 103 % of control

CN(C)C(OCCCC(=O)O)C(Cl)(Cl)Cl (configuration not stated)
T/C [4]: 113 % of control | T/C [5]: 96 % of control | T/C [6]: 109 % of control

C=CCOC(CCC)OCC=C
T/C [4]: 97 % of control | T/C [5]: 97 % of control

Cc1cc(=O)oc2c3c4c(cc12)CCCN4CCC3
T/C (dose: 100.0 mg/kg/injection, schedule: Q04DX003 (ip), vehicle: Klucel (hydroxypropylcellulose) (HPC)): 111 % of control | T/C (dose: 200.0 mg/kg/injection, schedule: Q04DX003 (ip), vehicle: Klucel (hydroxypropylcellulose) (HPC)): 109 % of control

COc1ccc(C(c2c(O)cc(C)[nH]c2=O)c2c(O)cc(C)[nH]c2=O)cc1F
T/C [10]: 97 % of control | T/C [11]: 96 % of control | T/C [12]: 95 % of control

c1ccc(N2CCCN2c2ccccc2)cc1
T/C (dose: 100.0 mg/kg/injection, schedule: Q04DX002 (ip), vehicle: saline with Tween-80): 101 % of control | T/C (dose: 200.0 mg/kg/injection, schedule: Q04DX002 (ip), vehicle: saline with Tween-80): 99 % of control | T/C (dose: 400.0 mg/kg/injection, schedule: Q04DX002 (ip), vehicle: saline with Tween-80): 98 % of control
